According to US20100003217A1, “Compounds and Pharmaceutical Compositions for the Treatment of Viral Infections” (priority 2008, published 2010):
“And” between values parts separate entries of the source, which are not always exact repeats. Identical values can stand only once.

Columns and labels:
[1] = tested on: rat primary hepatocytes; assay: Metabolic disposition of [^14C]-Compound 1 and [^14C]-2′-C-methyl guanosine in rat primary hepatocytes (incubation medium, cellular extracts, nucleotide levels); format: in vitro ADME, Sprague Dawley rat; conditions: rat hepatocytes Rs458, 10 μM [^14C]-Compound 1
Summary of the method: (§1)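 Radio-HPLC and liquid scintillation counting quantified metabolites in incubation medium and in 70% methanol cell extracts. Samples came from cultured rat, monkey or human primary hepatocytes exposed at 37° C to 1 or 10 μM [^14C]-compound or [^14C]-2′-C-methyl guanosine, sampled at 1–24 hours. Phosphates were confirmed by phosphatase digestion to the nucleoside.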

[2] = tested on: human primary hepatocytes; assay: Metabolic disposition of [^14C]-Compound 1 and [^14C]-2′-C-methyl guanosine in human primary hepatocytes (incubation medium, cellular extracts, nucleotide levels); format: in vitro ADME
Summary of the method: as §1

[3] = human hepatocytes (Hu775), 1 μM [^14C]-Compound 1, 0 h
[4] = human hepatocytes (Hu775), 1 μM [^14C]-Compound 1, 1 h
[5] = human hepatocytes (Hu775), 1 μM [^14C]-Compound 1, 8 h
[6] = human hepatocytes (Hu775), 1 μM [^14C]-Compound 1, 24 h
[7] = human hepatocytes Hu775, 1 μM [^14C]-2′-C-methyl guanosine, 1 h
[8] = human hepatocytes Hu775, 1 μM [^14C]-2′-C-methyl guanosine, 8 h
[9] = human hepatocytes Hu775, 1 μM [^14C]-2′-C-methyl guanosine, 24 h

C[C@@]1(O)[C@H](O)[C@@H](COP(=O)(O)O)O[C@H]1n1cnc2c(=O)[nH]c(N)nc21 [Compound 5, [(2R)-2-methyl-β-D-ribofuranosyl]guanine 5′-monophosphate]
2′-C-methyl guanosine nucleotide levels in cellular extracts ([1]; 8 h): 86.0 pmol/million cells
2′-C-methyl guanosine nucleotide levels in cellular extracts ([1]; 24 h): 181 pmol/million cells
metabolites observed in cellular extracts (% of total radioactivity) ([2]; human hepatocytes (Hu759, Hu775), 10 μM [^14C]-2′-C-methyl guanosine, 8 h): 1.89% and 1.11%
metabolites observed in cellular extracts (% of total radioactivity) ([2]; human hepatocytes (Hu759, Hu775), 10 μM [^14C]-2′-C-methyl guanosine, 24 h): 3.82% and 3.41%
metabolites observed in cellular extracts (% of total radioactivity) ([2]; human hepatocytes (Hu759, Hu775), 10 μM [^14C]-Compound 1, 1 h): 6.44% and 8.77%
metabolites observed in cellular extracts (% of total radioactivity) ([2]; human hepatocytes (Hu759, Hu775), 10 μM [^14C]-Compound 1, 4 h): 5.70% and 5.54%
metabolites observed in cellular extracts (% of total radioactivity) ([2]; human hepatocytes (Hu759, Hu775), 10 μM [^14C]-Compound 1, 8 h): 7.99% and 4.44%
metabolites observed in cellular extracts (% of total radioactivity) ([2]; human hepatocytes (Hu759, Hu775), 10 μM [^14C]-Compound 1, 24 h): 5.38% and 12.8%
2′-C-methyl guanosine nucleotide levels in cellular extracts [2, 3]: BLD^a (BLD = below limit of detection (0.02 pmol/million cells))
metabolites observed in medium (% of total radioactivity) [2, 3]: BLD
2′-C-methyl guanosine nucleotide levels in cellular extracts [2, 4]: 2.40 pmol/million cells
metabolites observed in cellular extracts (% of total radioactivity) [2, 4]: 5.45%
metabolites observed in medium (% of total radioactivity) [2, 4]: BLD
2′-C-methyl guanosine nucleotide levels in cellular extracts [2, 5]: 2.10 pmol/million cells
metabolites observed in cellular extracts (% of total radioactivity) [2, 5]: 3.60%
metabolites observed in medium (% of total radioactivity) [2, 5]: 10.4%
2′-C-methyl guanosine nucleotide levels in cellular extracts [2, 6]: 5.80 pmol/million cells
metabolites observed in cellular extracts (% of total radioactivity) [2, 6]: 6.41%
metabolites observed in medium (% of total radioactivity) [2, 6]: 8% and 8.29%
metabolites observed in medium (% of total radioactivity) ([2]; human hepatocytes (lots Hu759, Hu775), 10 μM [^14C]-Compound 1, 0 h): BLD
metabolites observed in medium (% of total radioactivity) ([2]; human hepatocytes (lots Hu759, Hu775), 10 μM [^14C]-Compound 1, 1 h): 4.4% and 0.5%
metabolites observed in medium (% of total radioactivity) ([2]; human hepatocytes (lots Hu759, Hu775), 10 μM [^14C]-Compound 1, 4 h): 3.9% and 4.5%
metabolites observed in medium (% of total radioactivity) ([2]; human hepatocytes (lots Hu759, Hu775), 10 μM [^14C]-Compound 1, 8 h): 5.1% and 7.2%
metabolites observed in medium (% of total radioactivity) ([2]; human hepatocytes (lots Hu759, Hu775), 10 μM [^14C]-Compound 1, 24 h): 4.7% and 7.1%
2′-C-methyl guanosine nucleotide levels in cellular extracts ([2]; human hepatocytes Hu759, 10 μM [^14C]-2′-C-methyl guanosine, 0 h): 0 pmol/million cells
2′-C-methyl guanosine nucleotide levels in cellular extracts ([2]; human hepatocytes Hu759, 10 μM [^14C]-2′-C-methyl guanosine, 1 h): BLD^a (BLD = below limit of detection (0.02 pmol/million cells))
2′-C-methyl guanosine nucleotide levels in cellular extracts ([2]; human hepatocytes Hu759, 10 μM [^14C]-2′-C-methyl guanosine, 4 h): BLD (BLD = below limit of detection (0.02 pmol/million cells))
2′-C-methyl guanosine nucleotide levels in cellular extracts ([2]; human hepatocytes Hu759, 10 μM [^14C]-2′-C-methyl guanosine, 8 h): 9.00 pmol/million cells
2′-C-methyl guanosine nucleotide levels in cellular extracts ([2]; human hepatocytes Hu759, 10 μM [^14C]-2′-C-methyl guanosine, 24 h): 23.0 pmol/million cells
2′-C-methyl guanosine nucleotide levels in cellular extracts ([2]; human hepatocytes Hu759, 10 μM [^14C]-Compound 1, 0 h): 0 pmol/million cells
2′-C-methyl guanosine nucleotide levels in cellular extracts ([2]; human hepatocytes Hu759, 10 μM [^14C]-Compound 1, 1 h): 4.00 pmol/million cells
2′-C-methyl guanosine nucleotide levels in cellular extracts ([2]; human hepatocytes Hu759, 10 μM [^14C]-Compound 1, 4 h): 15.0 pmol/million cells
2′-C-methyl guanosine nucleotide levels in cellular extracts ([2]; human hepatocytes Hu759, 10 μM [^14C]-Compound 1, 8 h): 25.0 pmol/million cells
2′-C-methyl guanosine nucleotide levels in cellular extracts ([2]; human hepatocytes Hu759, 10 μM [^14C]-Compound 1, 24 h): 28.0 pmol/million cells
2′-C-methyl guanosine nucleotide levels in cellular extracts ([2]; human hepatocytes Hu775, 1 μM [^14C]-2′-C-methyl guanosine, 0 h): BLD (BLD = below limit of detection (0.02 pmol/million cells))
2′-C-methyl guanosine nucleotide levels in cellular extracts [2, 7]: BLD (BLD = below limit of detection (0.02 pmol/million cells))
Major metabolites observed in cellular extracts (% of total radioactivity) [2, 7]: BLD^a (BLD = below limit of detection (30 DPM))
2′-C-methyl guanosine nucleotide levels in cellular extracts [2, 8]: BLD (BLD = below limit of detection (0.02 pmol/million cells))
Major metabolites observed in cellular extracts (% of total radioactivity) [2, 8]: BLD (BLD = below limit of detection (30 DPM))
2′-C-methyl guanosine nucleotide levels in cellular extracts [2, 9]: 1.50 pmol/million cells
Major metabolites observed in cellular extracts (% of total radioactivity) [2, 9]: 3.39 % of total radioactivity
2′-C-methyl guanosine nucleotide levels in cellular extracts ([2]; human hepatocytes Hu775, 10 μM [^14C]-2′-C-methyl guanosine, 0 h): 0 pmol/million cells
2′-C-methyl guanosine nucleotide levels in cellular extracts ([2]; human hepatocytes Hu775, 10 μM [^14C]-2′-C-methyl guanosine, 1 h): 2.80 pmol/million cells
2′-C-methyl guanosine nucleotide levels in cellular extracts ([2]; human hepatocytes Hu775, 10 μM [^14C]-2′-C-methyl guanosine, 4 h): 4.00 pmol/million cells
2′-C-methyl guanosine nucleotide levels in cellular extracts ([2]; human hepatocytes Hu775, 10 μM [^14C]-2′-C-methyl guanosine, 8 h): 4.90 pmol/million cells
2′-C-methyl guanosine nucleotide levels in cellular extracts ([2]; human hepatocytes Hu775, 10 μM [^14C]-2′-C-methyl guanosine, 24 h): 16.0 pmol/million cells
2′-C-methyl guanosine nucleotide levels in cellular extracts ([2]; human hepatocytes Hu775, 10 μM [^14C]-Compound 1, 0 h): 0 pmol/million cells
2′-C-methyl guanosine nucleotide levels in cellular extracts ([2]; human hepatocytes Hu775, 10 μM [^14C]-Compound 1, 1 h): 10.3 pmol/million cells
2′-C-methyl guanosine nucleotide levels in cellular extracts ([2]; human hepatocytes Hu775, 10 μM [^14C]-Compound 1, 4 h): 17.1 pmol/million cells
2′-C-methyl guanosine nucleotide levels in cellular extracts ([2]; human hepatocytes Hu775, 10 μM [^14C]-Compound 1, 8 h): 21.9 pmol/million cells
2′-C-methyl guanosine nucleotide levels in cellular extracts ([2]; human hepatocytes Hu775, 10 μM [^14C]-Compound 1, 24 h): 121 pmol/million cells
